Test results taken from US20090264427A1, “3-Cyanoquinolines, Methods for Preparation and Use as Insulin-like Growth Factor Inhibitors” (Wyeth, priority 2008, published 2009).

Target: T1, IGF1-receptor kinase (IGFR) (Homo sapiens, UniProt P08069)
T1 construct: GST (with thrombin cleavage site) (N); made in house; host or cells: ExpresSF insect cells
Assay: 96-well FRET (Lance) tyrosine kinase assay, IGFR
Assay type: biochemical
Conditions: ATP 100 micromolar final, 1 hour reaction, enzyme form (GST-, Bis- or Tris-IGFR) not given

T1 sequence (P08069 31-1367): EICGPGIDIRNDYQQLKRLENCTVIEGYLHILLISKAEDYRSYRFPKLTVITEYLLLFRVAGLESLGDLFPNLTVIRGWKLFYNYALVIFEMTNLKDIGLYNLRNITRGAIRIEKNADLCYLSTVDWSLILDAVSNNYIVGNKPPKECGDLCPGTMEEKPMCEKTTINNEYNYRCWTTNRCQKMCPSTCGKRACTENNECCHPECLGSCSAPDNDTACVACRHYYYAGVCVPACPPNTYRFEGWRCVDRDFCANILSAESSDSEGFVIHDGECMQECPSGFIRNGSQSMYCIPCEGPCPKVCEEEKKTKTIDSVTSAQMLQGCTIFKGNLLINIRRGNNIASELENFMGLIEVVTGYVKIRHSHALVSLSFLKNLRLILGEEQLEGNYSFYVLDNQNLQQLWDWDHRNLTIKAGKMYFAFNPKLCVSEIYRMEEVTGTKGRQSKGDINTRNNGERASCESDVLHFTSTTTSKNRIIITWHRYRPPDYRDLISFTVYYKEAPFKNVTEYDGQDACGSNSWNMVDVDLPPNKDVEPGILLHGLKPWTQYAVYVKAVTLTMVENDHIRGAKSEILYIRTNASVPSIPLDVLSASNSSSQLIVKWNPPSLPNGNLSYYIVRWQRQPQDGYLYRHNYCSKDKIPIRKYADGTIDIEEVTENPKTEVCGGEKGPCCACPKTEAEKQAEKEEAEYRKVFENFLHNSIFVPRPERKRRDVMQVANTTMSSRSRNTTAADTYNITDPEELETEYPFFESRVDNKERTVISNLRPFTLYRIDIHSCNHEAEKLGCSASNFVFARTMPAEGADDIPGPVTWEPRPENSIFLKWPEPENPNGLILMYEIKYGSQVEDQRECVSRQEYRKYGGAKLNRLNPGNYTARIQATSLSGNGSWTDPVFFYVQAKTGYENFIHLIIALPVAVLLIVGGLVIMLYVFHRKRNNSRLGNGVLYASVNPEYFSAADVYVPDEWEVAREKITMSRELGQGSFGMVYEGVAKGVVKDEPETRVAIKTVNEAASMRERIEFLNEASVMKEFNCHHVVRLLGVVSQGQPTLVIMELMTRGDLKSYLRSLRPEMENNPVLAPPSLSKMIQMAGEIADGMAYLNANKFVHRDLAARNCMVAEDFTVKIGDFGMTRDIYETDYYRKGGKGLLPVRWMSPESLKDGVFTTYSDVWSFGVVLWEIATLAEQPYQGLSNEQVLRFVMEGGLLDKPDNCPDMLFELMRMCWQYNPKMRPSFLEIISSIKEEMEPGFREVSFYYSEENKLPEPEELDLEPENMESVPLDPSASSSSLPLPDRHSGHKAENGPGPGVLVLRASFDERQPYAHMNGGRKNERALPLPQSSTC

Row | IC50 [nM] | Structure (SMILES)
1 | 291 | COc1cc2c(Nc3ccc(Sc4nc5cc(C)ccc5n4C)c(Cl)c3)c(C#N)cnc2cc1NCCCN(C)C [Example 3, 4-({3-chloro-4-[(1,5-dimethyl-1H-benzimidazol-2-yl)thio]phenyl}amino)-7-{[3-(dimethylamino)propyl]amino}-6-methoxyquinoline-3-carbonitrile]
2 | 30 | COc1cc2c(Nc3ccc(Sc4nc(C)c(C)n4C)c(Br)c3)c(C#N)cnc2cc1NCCCN(C)C [Example 5, 4-({3-bromo-4-[(1,4,5-trimethyl-1H-imidazol-2-yl)thio]phenyl}amino)-7-{[3-(dimethylamino)-propyl]amino}-6-methoxy-quinoline-3-carbonitrile]
3 | 394 | COc1cc2c(Nc3ccc(Sc4nc(C)c(C)n4C)cc3)c(C#N)cnc2cc1NCCCN(C)C [Example 6, 7-{[3-(dimethyl-amino)propyl]-amino}-6-methoxy-4-({4-[(1,4,5-trimethyl-1H imidazol-2-yl)thio]phenyl}amino)-quinoline-3-carbonitrile]
4 | 17200 | CCn1c(Sc2ccc(Nc3c(C#N)cnc4cc(NCCCc5ccccc5)c(OC)cc34)cc2Cl)nc(C)c1C [Example 7, 4-({3-Chloro-4-[(1-ethyl-4,5-dimethyl-1H-imidazol-2-yl)thio]phenyl}amino)-6-methoxy-7-[(3-phenylpropyl)amino]quinoline-3-carbonitrile]
5 | 13 | CCn1c(Sc2ccc(Nc3c(C#N)cnc4cc(NCCCN5CCOCC5)c(OC)cc34)cc2Cl)nc(C)c1C [Example 8, 4-({3-chloro-4-[(1-ethyl-4,5-dimethyl-1H-imidazol-2-yl)thio]phenyl}-amino)-6-methoxy-7-[(3-morpholin-4-ylpropyl)amino]-quinoline-3-carbonitrile]
6 | 21 | CCn1c(Sc2ccc(Nc3c(C#N)cnc4cc(NCCCN(CCO)CCO)c(OC)cc34)cc2Cl)nc(C)c1C [Example 9, 7-({3-[bis(2-hydroxyethyl)amino]propyl}amino)-4-({3-chloro-4-[(1-ethyl-4,5-dimethyl-1H-imidazol-2-yl)thio]phenyl}amino)-6-methoxyquinoline-3-carbonitrile]
7 | 3880 | CCn1c(Sc2ccc(Nc3c(C#N)cnc4cc(OCCCNS(=O)(=O)c5ccccc5)c(OC)cc34)cc2Cl)nc(C)c1C [Example 10, N-(3-{4-[3-chloro-4-(1-ethyl-4,5-dimethyl-1H-imidazol-2-ylsulfanyl)-phenylamino]-3-cyano-6-methoxy-quinolin-7-yloxy}-propyl)-benzenesulfonamide]
8 | 24 | CCn1c(Sc2ccc(Nc3c(C#N)cnc4cc(OCCCN(CCO)C(C)(C)C)c(OC)cc34)cc2Cl)nc(C)c1C [Example 11, 7-{3-[tert-butyl(2-hydroxy-ethyl)amino]propoxy}-4-({3-chloro-4-[(1-ethyl-4,5-dimethyl-1H-imidazol-2-yl)thio]phenyl}amino)-6-methoxyquinoline-3-carbonitrile]
9 | 41 | CCOC(=O)N1CCN(CCCOc2cc3ncc(C#N)c(Nc4ccc(Sc5nc(C)c(C)n5CC)c(Cl)c4)c3cc2OC)CC1 [Example 13, ethyl 4-(3-{[4-({3-chloro-4-[(1-ethyl-4,5-dimethyl-1H-imidazol-2-yl)thio]phenyl}amino)-3-cyano-6-methoxyquinolin-7-yl]oxy}propyl)-piperazine-1-carboxylate]
10 | 27 | CCC1CCCCN1CCCOc1cc2ncc(C#N)c(Nc3ccc(Sc4nc(C)c(C)n4CC)c(Cl)c3)c2cc1OC (stereo not drawn) [Example 14, 4-({3-chloro-4-[(1-ethyl-4,5-dimethyl-1H-imidazol-2-yl)thio]phenyl}amino)-7-[3-(2-ethylpiperidin-1-yl)propoxy]-6-methoxy-quinoline-3-carbonitrile]
11 | 142 | CCOC(=O)C1CCN(CCCOc2cc3ncc(C#N)c(Nc4ccc(Sc5nc(C)c(C)n5CC)c(Cl)c4)c3cc2OC)CC1 [Example 15, ethyl 1-(3-{[4-({3-chloro-4-[(1-ethyl-4,5-dimethyl-1H-imidazol-2-yl)thio]phenyl}amino)-3-cyano-6-methoxyquinolin-7-yl]oxy}propyl)-piperidine-4-carboxylate]
12 | 35 | CCn1c(Sc2ccc(Nc3c(C#N)cnc4cc(OCCCNS(C)(=O)=O)c(OC)cc34)cc2Cl)nc(C)c1C [Example 16, N-(3-{[4-({3-chloro-4-[(1-ethyl-4,5-dimethyl-1H-imidazol-2-yl)thio]phenyl]amino)-3-cyano-6-methoxyquinolin-7-yl]oxy}propyl)-methanesulfonamide]
13 | 5 | CCN1CCN(CCCOc2cc3ncc(C#N)c(Nc4ccc(Sc5nc(C)c(C)n5CC)c(Cl)c4)c3cc2OC)CC1 [Example 17, 4-({3-Chloro-4-[(1-ethyl-4,5-dimethyl-1H-imidazol-2-yl)sulfanyl]phenyl}amino)-7-[3-(4-ethyl-1-piperazinyl)propoxy]-6-methoxy-3-quinolinecarbonitrile]
14 | 11 | CCn1c(Sc2ccc(Nc3c(C#N)cnc4cc(OCCCN5CCN(CCO)CC5)c(OC)cc34)cc2Cl)nc(C)c1C [Example 18, 4-({3-chloro-4-[(1-ethyl-4,5-dimethyl-1H-imidazol-2-yl)thio]-phenyl}amino)-7-{3-[4-(2-hydroxyethyl)piperazin-1-yl]propoxy}-6-methoxy-quinoline-3-carbonitrile]
15 | 20 | CCn1c(Sc2ccc(Nc3c(C#N)cnc4cc(OCCCN5CCC(O)C5)c(OC)cc34)cc2Cl)nc(C)c1C (stereo not drawn) [Example 20, 4-({3-chloro-4-[(1-ethyl-4,5-dimethyl-1H-imidazol-2-yl)thio]phenyl}amino)-7-[3-(3-hydroxypyrrolidin-1-yl)propoxy]-6-methoxyquinoline-3-carbonitrile]
16 | 17 | CCOC(=O)CN1CCN(CCCOc2cc3ncc(C#N)c(Nc4ccc(Sc5nc(C)c(C)n5CC)c(Cl)c4)c3cc2OC)CC1 [Example 22, ethyl [4-(3-{[4-({3-chloro-4-[(1-ethyl-4,5-dimethyl-1H-imidazol-2-yl)thio]phenyl}amino)-3-cyano-6-methoxyquinolin-7-yl]oxy}propyl)piperazin-1-yl]acetate]
17 | 22 | CCn1c(Sc2ccc(Nc3c(C#N)cnc4cc(OCCCN5CCOCC5)c(OC)cc34)cc2Cl)nc(C)c1C [Example 24, 4-({3-chloro-4-[(1-ethyl-4,5-dimethyl-1H-imidazol-2-yl)thio]phenyl}amino)-6-methoxy-7-(3-morpholin-4-ylpropoxy)qquinoline-3-carbonitrile]
18 | 47 | CCn1c(Sc2ccc(Nc3c(C#N)cnc4cc(OCCCN5CCC(O)CC5)c(OC)cc34)cc2Cl)nc(C)c1C [Example 26, 4-({3-chloro-4-[(1-ethyl-4,5-dimethyl-1H-imidazol-2-yl)thio]phenyl}amino)-7-[3-(4-hydroxypiperidin-1-yl)propoxy]-6-methoxyquinoline-3-carbonitrile]
19 | 16 | CCn1c(Sc2ccc(Nc3c(C#N)cnc4cc(OCCCN5CCN(C(C)=O)CC5)c(OC)cc34)cc2Cl)nc(C)c1C [Example 27, 7-[3-(4-acetylpiperazin-1-yl)propoxy]-4-({3-chloro-4-[(1-ethyl-4,5-dimethyl-1H imidazol-2-yl)thio]phenyl}amino)-6-methoxyquinoline-3-carbonitrile]
20 | 2 | CCn1c(Sc2ccc(Nc3c(C#N)cnc4cc(NCCCN5CCN(C)CC5)c(OC)cc34)cc2Cl)nc(C)c1C [Example 28, 4-[3-Chloro-4-(1-ethyl-4,5-dimethyl-1H-imidazol-2-ylsulfanyl)-phenylamino]-6-methoxy-7-[3-(4-methyl-piperazin-1-yl)-propylamino]-quinoline-3-carbonitrile]

System: not given
Assay: not given
Conditions: not given

Row | melting point [°C] | Structure (SMILES)
21 | 229 to 230 | CCN1CCN(CCCOc2cc3ncc(C#N)c(Nc4ccc(Sc5nc(C)c(C)n5CC)c(Cl)c4)c3cc2OC)CC1 [Example 17, 4-({3-Chloro-4-[(1-ethyl-4,5-dimethyl-1H-imidazol-2-yl)sulfanyl]phenyl}amino)-7-[3-(4-ethyl-1-piperazinyl)propoxy]-6-methoxy-3-quinolinecarbonitrile]
